Results as given in patent US7423051B2, “2,6-diaminopyridine derivatives” (Hoffmann-La Roche Inc., priority 2004, dated 2008).
Read-outs that look alike come from different tables or passages of the source.

Legend:
human cyclin D1-CDK4 = target: T1, human cyclin D1-CDK4 (Homo sapiens, UniProt P11802); experiment: CDK4 HTRF kinase assay (Ki measurement); type: biochemical; settings: Rb substrate, ATP at 3x Km, Ki=IC50/(1+S/Km)
T1 construct: GST (N); made in house; host or cells: High Five insect cells (baculovirus)
Text: (§1) Using recombinant human cyclin B-CDK1, human cyclin E-CDK2 or human cyclin D1-CDK4 complexes. GST-cyclinE (GST-cycE), CDK2, GST-cyclinB (GST-cycB), CDK1, GST-CDK4 and cyclin D1 (cycD1) cDNA clones in baculovirus vectors were provided by Dr. W. Harper at the Baylor College of Medicine, Houston, Tex. Proteins were co-expressed in High Five™ insect cells and the complex was purified on glutathione Sepharose resin (Pharmacia, Piscataway, N.J.) as previously described (Harper, J. W. et al. Cell 1993, 75, 805-816). A 6×-Histidine tagged truncated form of retinoblastoma (Rb) protein (amino acid 386-928) was used as the substrate for the cycD1-CDK4, cycB-CDK1 and the cycE-CDK2 assays (the expression plasmid was provided by Dr. Veronica Sullivan, Department of Molecular Virology, Roche Research Centre, Welwyn Garden City, United Kingdom). The Rb protein is a natural substrate for phosphorylation by CDK4, CDK2 and CDK1 (see Herwig and Strauss Eur. J. Biochem. Vol. 246 (1997) pp.581-601 and the references cited therein).
(§2) The expression of the 62Kd protein was under the control of an IPTG inducible promoter in an M15 E. coli strain. […] Purified Rb fusion protein stocks were quantitated for protein concentration, aliquoted, and stored at −70° C.
(§3) Using the protein constructs described above, CDK1, CDK2, and CDK4 HTRF assays were set up. These were done in 96-well format and read in 384-well plate format. […]
(§4) In the CDK4 assay, test compounds were diluted to 3× their final concentrations in 25 mM Hepes, pH 7.0, 6.25 mM MgCl2, 1.5 mM DTT, 135 μM ATP. […] The plates were read using either ViewLux or Victor V readers (PerkinElmer Life Sciences) using an excitation wavelength of 340 nm and dual emission wavelengths of 615 nm and 665 nm. […] For ATP competitive inhibitors, the Ki values were calculated according to the following equation: Ki=IC50/(1+S/Km) where S refers to the substrate concentration (ATP) and Km refers to the Michaelis-Menten constant for the ATP.

human cyclin B-CDK1 = target: T2, human cyclin B-CDK1 (Homo sapiens, UniProt P06493); experiment: CDK1 HTRF kinase assay (Ki measurement); type: biochemical; settings: Rb substrate, ATP at 3x Km, Ki=IC50/(1+S/Km)
T2 construct: made in house; host or cells: High Five insect cells (baculovirus)
Text: Using recombinant human cyclin B-CDK1, human cyclin E-CDK2 or human cyclin D1-CDK4 complexes. GST-cyclinE (GST-cycE), CDK2, GST-cyclinB (GST-cycB), CDK1, GST-CDK4 and cyclin D1 (cycD1) cDNA clones in baculovirus vectors were provided by Dr. W. Harper at the Baylor College of Medicine, Houston, Tex. Proteins were co-expressed in High Five™ insect cells and the complex was purified on glutathione Sepharose resin (Pharmacia, Piscataway, N.J.) as previously described (Harper, J. W. et al. Cell 1993, 75, 805-816). […]
as §2, §3
In the CDK4 assay, test compounds were diluted to 3× their final concentrations in 25 mM Hepes, pH 7.0, 6.25 mM MgCl2, 1.5 mM DTT, 135 μM ATP. […] The plates were read using either ViewLux or Victor V readers (PerkinElmer Life Sciences) using an excitation wavelength of 340 nm and dual emission wavelengths of 615 nm and 665 nm. […]

human cyclin E-CDK2 = target: T3, human cyclin E-CDK2 (Homo sapiens, UniProt P24941); experiment: CDK2 HTRF kinase assay (Ki measurement); type: biochemical; settings: Rb substrate, ATP at 3x Km, Ki=IC50/(1+S/Km)
T3 construct: made in house; host or cells: High Five insect cells (baculovirus)
Text: as §1, §2, §3
as §4, with “the ATP. […]” for “the ATP.”

HCT116 cell line = experiment: Tetrazolium dye proliferation assay (MTT assay); type: cell-based; settings: HCT-116; human colon tumor cell line HCT116, MTT assay
Protocol: Cell Based Assays (Tetrazolium dye proliferation assay)(“MTT Assay”)
Proliferation was evaluated by the tetrazolium dye assay according to the procedure of Denizot and Lang (Denizot, F. and Lang, R. J Immunol Methods 1986, 89, 271-277). The cell line used was HCT116, a colorectal carcinoma cell line obtained from the American Type Cell Culture Collection (ATCC; Rockville, Md.). The cells were grown in McCoy's 5A medium supplemented with 10% FCS and L-glutamine.
Cells were plated at the appropriate seeding density to give logarithmic growth over the course of the assay in a 96-well tissue culture plate. Plates were incubated overnight at 37° C. in a humidified incubator with 5% CO2. The next day, test compounds were serially diluted to four times the final concentration in the appropriate medium containing 1.2% DMSO. One-fourth final volume of each dilution was added in duplicate to the plates containing cells. The same volume of 1.2% DMSO in medium was added to a row of “control wells” such that the final concentration of DMSO in each well was 0.3%. Wells to which no cells were added served as the “blank.” Wells to which no inhibitor was added served as “no inhibitor control.” The plates were returned to the incubator, and at set time points (determined by their growth curves) plates were analyzed as described below.
3-(4,5-dimethylthiazole-2-yl)-2,5-diphenyl-2H-tetrazolium bromide (thiazolyl blue; MTT; Sigma) was added to each well to yield a final concentration of 1 mg/ml. Plates were returned to the incubator for 2.5-3 hours at 37° C. […] Absorbance readings were taken in a microtiter plate reader (Dynatech and Molecular Devices plate readers were used interchangeably) at a wavelength of 570 nm with a 650 nm reference. Percent inhibition (% INH) is calculated by subtracting the absorbance of the blank well from all wells, then subtracting the ratio of the average absorbance of each test duplicate (SAVE) by the average of the controls (CAVE) from 1.00. […]

T1 sequence (P11802 whole entry): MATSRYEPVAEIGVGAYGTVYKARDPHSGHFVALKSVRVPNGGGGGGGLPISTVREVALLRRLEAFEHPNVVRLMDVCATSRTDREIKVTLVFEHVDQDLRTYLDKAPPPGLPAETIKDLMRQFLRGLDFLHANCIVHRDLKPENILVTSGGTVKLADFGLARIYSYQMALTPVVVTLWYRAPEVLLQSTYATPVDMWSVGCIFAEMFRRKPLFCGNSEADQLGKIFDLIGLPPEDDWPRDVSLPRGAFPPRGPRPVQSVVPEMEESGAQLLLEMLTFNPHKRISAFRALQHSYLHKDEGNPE
T1 sequence (P24385 whole entry partner): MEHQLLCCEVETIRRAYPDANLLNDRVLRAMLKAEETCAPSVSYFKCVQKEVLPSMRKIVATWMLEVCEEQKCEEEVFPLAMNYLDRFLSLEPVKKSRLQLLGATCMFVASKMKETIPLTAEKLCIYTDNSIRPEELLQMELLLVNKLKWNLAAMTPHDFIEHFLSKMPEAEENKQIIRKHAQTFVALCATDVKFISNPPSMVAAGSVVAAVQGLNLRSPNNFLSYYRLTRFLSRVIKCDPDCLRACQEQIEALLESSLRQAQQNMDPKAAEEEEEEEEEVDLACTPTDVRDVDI
T2 sequence (P06493 whole entry): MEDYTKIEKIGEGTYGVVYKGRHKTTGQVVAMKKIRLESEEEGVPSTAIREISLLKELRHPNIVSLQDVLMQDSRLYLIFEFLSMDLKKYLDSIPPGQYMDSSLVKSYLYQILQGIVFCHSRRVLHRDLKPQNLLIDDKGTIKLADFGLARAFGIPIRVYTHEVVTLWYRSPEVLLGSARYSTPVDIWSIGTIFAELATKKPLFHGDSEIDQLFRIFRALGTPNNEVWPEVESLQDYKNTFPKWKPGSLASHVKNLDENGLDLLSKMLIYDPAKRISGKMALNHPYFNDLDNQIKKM
T2 sequence (P14635 whole entry partner): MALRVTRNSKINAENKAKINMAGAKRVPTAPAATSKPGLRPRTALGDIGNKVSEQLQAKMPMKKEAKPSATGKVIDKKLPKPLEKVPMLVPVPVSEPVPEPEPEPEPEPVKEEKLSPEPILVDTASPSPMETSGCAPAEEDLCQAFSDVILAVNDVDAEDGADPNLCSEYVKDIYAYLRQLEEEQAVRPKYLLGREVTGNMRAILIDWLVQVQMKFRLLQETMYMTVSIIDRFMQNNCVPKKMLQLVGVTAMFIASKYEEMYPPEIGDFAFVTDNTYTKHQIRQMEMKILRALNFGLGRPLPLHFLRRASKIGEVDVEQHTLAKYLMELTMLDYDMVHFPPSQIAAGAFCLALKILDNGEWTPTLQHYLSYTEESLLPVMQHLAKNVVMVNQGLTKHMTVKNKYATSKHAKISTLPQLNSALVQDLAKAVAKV

Ki (human cyclin D1-CDK4)	Ki (human cyclin B-CDK1)	Ki (human cyclin E-CDK2; read-out: Ki for cdk2 (unit inferred))	IC50 (HCT116 cell line)	Ki (human cyclin E-CDK2; read-out: Ki for cdk2)	Compound
0.017 µM	0.06 µM	0.054 µM	2.6 µM		COc1ccc(F)c(F)c1C(=O)c1ccc(NC2CCN(S(C)(=O)=O)CC2)nc1N [Example 40, [2-Amino-6-(1-methanesulfonyl-piperidin-4-ylamino)-pyridin-3-yl]-(2,3-difluoro-6-methoxy-phenyl)-methanone]
0.04 µM			9 µM	0.098 µM	COc1ccc(F)cc1C(=O)c1ccc(NC2CCN(S(C)(=O)=O)CC2)nc1N [Example 23, [2-Amino-6-(1-methanesulfonyl-piperidin-4-ylamino)-pyridin-3-yl]-(5-fluoro-2-methoxy-phenyl)-methanone]
0.008 µM	0.154 µM		3 µM	0.039 µM	COc1cc(Cl)c(F)cc1C(=O)c1ccc(NC2CCN(S(C)(=O)=O)CC2)nc1N [Example 49, [2-Amino-6-(1-methanesulfonyl-piperidin-4-ylamino)-pyridin-3-yl]-(4-chloro-5-fluoro-2-methoxy-phenyl)-methanone]
